# In PMC5855688, “BC-Box Motif-Mediated Neuronal Differentiation of Somatic Stem Cells” (International Journal of Molecular Sciences, 2018):
# “Also recorded” adds a separate entry of the source.
# Columns and labels:
# [1] = tested on: rat brain; test: Immunohistochemistry (NeuN) of transplanted peptide-treated cells in rat brain; format: in vivo, rat (Wistar); details: 1 × 10^5 peptide-treated cells transplanted into rat brain, 6 weeks; mean ± SEM; vs VHL(157–171): p < 0.01 for VHL(157–168), p < 0.005 for TAT
# Experimental: To evaluate neuronal differentiation of transplanted cells in rat brains, immunohistochemical study was performed as described previously. Before grafting, cells were preincubated with red fluorescence PKH26PCL (Sigma, St. Louis, MO, USA). […] Rats were anesthetized with isoflurane before surgery, and 1 × 10^5 cells were transplanted into rat brain. The rats were perfused with periodate-lysine-paraformaldehyde solution 6 weeks after the transplantation. Their brains were subsequently dissected and postfixed in the same medium for 2 h, cryopreserved in 30% sucrose for 12 h, and then embedded in Tissue Tek OCT compound (Sakura, Tokyo, Japan). Cryostat coronal sections of 14-μm thickness were prepared for immunohistochemistry. For immunostaining, sections were incubated with primary antibody, anti-NeuN antibody, and then incubated in secondary antibody, FITC-conjugated anti-rabbit IgG. Counterstaining was done with DAPI. In immohistochemistry, observations were made with a confocal immunofluorescence microscope (FV300, Olympus, Tokyo, Japan).
# Wistar rats (Clea, Tokyo, Japan) were used in all experiments and housed in a temperature controlled room on a 12-h day/night cycle with free access to food and water. All animal experimental procedures were approved by the Institutional Animal Use Committee of Yokohama City University (ID 153, 1 April 2015) and were in accordance with National Institutes of Health guidelines for care and use of laboratory animals.
# [2] = tested on: skin-derived precursors (SKPs); test: Immunocytochemistry of neuronal markers in NDD peptide-treated cells; format: cell-based, rat (neonate Wistar); details: Figure 6B
# Experimental: (§1) Rodent skin-derived precursor cells (SKPs), which can differentiate to neurons, were used. SKPs were previously isolated from the back dermis of neonate Wistar rats by the authors. These cells were cultured in growth medium composed of DMEM/F12 (1:1; Gibco, Grand Island, NY, USA) containing 2% B27 supplement (Gibco), 20 ng/mL epidermal growth factor (EGF; Upstate Biotechnology, Lake Placid, NY, USA), and 40 ng/mL bFGF (PeproTech EC Ltd., Rocky Hill, NJ, USA) in a humidified incubator at 37 °C with 5% CO2. The floating clusters of cultured cells were centrifuged and dissociated into a single-cell suspension by use of a Pasteur pipette with a flame-polished tip. These single cells were then re-suspended into at a concentration of 50,000 cells/mL for passage or experiments.
# (§2) For neuronal differentiation, cells were dissociated into a single-cell suspension by use of a Pasteur pipette and re-suspended into a concentration of 50,000 cells/mL in DMEM/F12 without serum, neurotrophic factors or growth factors. Then, the cells were cultured on poly-L-lysine-coated dishes or cover glasses, and the synthesized peptides at concentrations from 1 to 5 μM were added to the culture medium and delivered into the cells. Three days or more later, the cells were used for morphological, immunocytochemical, immunohistochemical, electrophysiological and immunoprecipitation studies, as well as for Western blot analysis.
# Cultured cells were fixed with 4% paraformaldehyde in PBS (Phosphate buffered saline) for 10 min at room temperature. Cells were incubated for 1 h at room temperature with primary antibodies. Antibodies against anti-MAP2 antibody (Sigma-Aldrich, St. Louis, MO, USA), anti-Neurofilment-H (NFH) antibody (Sigma-Aldrich), anti-NeuN antibody (Merk Millipore, Billerica, MA, USA), anti-GFAP antibody (DAKO, Santa Clara, CA, USA), anti-tyrosine hydroxylase (TH) antibody (Merk Millipore, Billerica, MA, USA), anti-choline acetyl transferase (ChAT) antibody (Abbiotec, San Diego, CA, USA), anti-glutamic acid decaboxylase (GAD) antibody (Enzo Life Sciences, Flamingdale, NY, USA), and anti-rhodopsin antibody (Santa Cruz, San Diego, CA, USA) were used. After incubation with primary antibody, the cells were incubated for 1 h with secondary antibody, either rhodamine-conjugated anti-mouse IgG (Sigma-Aldrich) or FITC-conjugated anti-rabbit IgG (Sigma-Aldrich). Nuclear counterstaining was done with DAPI (Molecular Probes, Eugene, OR, USA) or TO-PRO-3 (Molecular Probes), and observations were made with a fluorescence microscope system (FV300, Olympus, Tokyo, Japan). We counted the number of immuno-positive cells with a given antibody in 4 to 6 random non-overlapping visual fields (50–200 cells per field) in each experiment. At least 2 experiments were performed per condition. The degree of positivity was expressed as the rate of immuno-positive cells to the total number of nuclei stained with DAP1 or TO-PRO-3.
# [3] = tested on: skin-derived precursors (SKPs); test: Whole-cell patch-clamp electrophysiology; format: cell-based, rat (neonate Wistar); details: five days after peptide addition at 3 μM, holding potential −80 mV, steps of 20 mV from −100 to 100 mV, VHL(157–168) vs VHL(157–171) p < 0.01
# Experimental: as §1, §2
# To record fast sodium and delayed rectifier potassium currents, we prepared extracellular and intracellular solutions as described previously. […] For recordings and data analysis we used CEZ-2300 (Nihon Kohden, Tokyo, Japan) and pCLAMP 6.0 software (Axon Instruments, Burlingame, CA, USA). Linear components of leak and capacitive currents were reduced by analogue circuitry and then canceled by the P/N method. Signals were sampled every 20 μs, and currents were filtered at 5 kHz. Data were additionally processed with Origin 5.0 (Microcal, Northhampton, MA, USA).
# [4] = tested on: JAK2; test: Ubiquitination assay (IP anti-JAK2, IB anti-ubiquitin); format: biochemical, rat; details: incubation 4 h with ubiquitin, E1, E2 and peptide; vs no peptide or TAT, p < 0.001; Figure 5A
# Experimental: We asked whether VHL(157–171) peptide-mediated neuronal differentiation was related to ubiquitination or not. […] After incubation for 4 h, cultured cells (1 × 10^6) were washed with ice-cold PBS and lysed in RIPA lysis buffer (Upstate, Charlottesville, VA, USA). The total protein was extracted from the cells, and the lysates were immunoprecipitated with anti-JAK2 antibody (Santa Cruz, San Diego, CA, USA) by using Protein A/G Sepharose (abcam, Cambridge, MA, USA). The immunoprecipitates were supplemented with 1 mM PMSF and the protease inhibitor cocktail. After 2 h, each sample was separated by SDS-PAGE and transferred electrophoretically to nitrocellulose filters. Western blots were probed with anti-ubiquitin antibody (Sigma-Aldrich) followed by horseradish peroxidase-conjugated secondary antibodies (Amersham). Protein bands were detected by using a chemical luminescence detection system (Amersham). Images were analyzed with LAS-1000 (Fujifilm).
sequence,measurement,setting,value
"YARAAARQARATLKERCLQVVRSLVK [VHL(157–171), NDD in pVHL: BC-box motif plus five amino acids, conjugated with PTD]",Positive rates of NeuN,[1],42.5 ± 4.5%
same,Rate of GAD-positive (GABAnergic neuron-like) cells,[2],high rates of positive cells
same,Rate of TH-positive (dopaminergic neuron-like) cells,[2],high rates of positive cells
same,Rate of rhodopsin-positive cells,[2],high rates of positive cells
same,Voltage-gated outward K+ and inward Na+ currents,[3],both large outward potassium currents and fast inward Na^+ currents
same,JAK2 ubiquitination,[4],had activity as an E3 ubiquitin ligase and mediated JAK2 ubiqutination; also recorded: ubiquitination was significantly enhanced
